Experimental data as given in patent US11034698B2, “Pyrazolo[ 1,5a]pyrimidine derivatives as IRAK4 modulators” (priority 2017, dated 2021).
Structures can show the parent of a compound that is named as a salt.

These compounds were tested against human IRAK4 (Homo sapiens (Human), UniProt Q9NWZ3) (assay: IRAK4 kinase inhibition, Transcreener fluorescence polarization (ADP)). Details: not given.
Sequence of human IRAK4 (Q9NWZ3 whole entry): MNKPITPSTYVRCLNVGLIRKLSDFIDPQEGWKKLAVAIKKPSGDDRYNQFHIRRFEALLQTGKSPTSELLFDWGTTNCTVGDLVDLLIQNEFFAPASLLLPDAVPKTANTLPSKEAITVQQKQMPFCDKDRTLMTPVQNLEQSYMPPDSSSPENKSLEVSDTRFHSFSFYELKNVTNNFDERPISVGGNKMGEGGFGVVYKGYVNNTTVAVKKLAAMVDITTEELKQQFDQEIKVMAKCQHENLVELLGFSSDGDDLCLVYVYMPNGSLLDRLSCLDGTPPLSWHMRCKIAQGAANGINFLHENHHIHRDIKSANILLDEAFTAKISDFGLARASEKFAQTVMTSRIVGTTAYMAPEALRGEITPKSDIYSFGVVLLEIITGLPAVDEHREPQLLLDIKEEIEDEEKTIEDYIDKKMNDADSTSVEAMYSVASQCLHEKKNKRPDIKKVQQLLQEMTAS
Format: biochemical
Procedure: Compounds were assayed for inhibition of human IRAK4 and IRAK1 catalytic activity using recombinant enzyme produced from insect cells. Full-length IRAK4 protein, carrying an N-terminal His6-Tag, was obtained from Life Technologies (Carlsbad, Calif., USA). The IRAK1 construct was produced internally and was comprised of IRAK1 residues Arg194 to Ser712, preceded by an NH2-terminal His6 tag and the coding sequence for glutathione-S-transferase.
Kinase activities were assayed using the Transcreener-Fluorecescence polarization platform (BelBrook Labs, Madison, Wis., USA) that measures amounts of the reaction product, ADP.
`CC[C@H]1CC(=O)NN1C1CCN(c2cc3c(cc2NC(=O)c2cnn4cccnc24)CC(C)(C)O3)CC1` (single isomer, unassigned) [Example 18] was tested, and the Ki was 6.7 nM. In the case of `CC1(C)Cc2cc(NC(=O)c3cnn4cccnc34)c(OC[C@H]3C[C@H]4NCCO[C@@H]4C3)cc2O1` (single isomer, unassigned) [Example 33], the Ki is reported as 230 nM. In the case of `CCN1C[C@@H](COc2cc3c(cc2NC(=O)c2cnn4cccnc24)CC(C)(C)O3)CC1=O` (single isomer, unassigned) [Example 23], the Ki is reported as 250 nM.

Same assay, conditions: recombinant full-length His6-IRAK4 1.25 nM; 125 uM ATP; 125 uM peptide; 90 min; ATP Km 642 uM; read-out: IRAK4 Ki
With `Cc1nocc1CN1CCN(c2cc3c(cc2NC(=O)c2cnn4cccnc24)CC(C)(C)O3)CC1` [Example 14, N-(2,2-Dimethyl-6-(4-((3-methylisoxazol-4-yl)methyl)piperazin-1-yl)-2,3-dihydrobenzofuran-5-yl)pyrazolo[1,5-a]pyrimidine-3-carboxamide hydrochloride] the Ki was 5.2 nM. Work on `CN(C)CCN1CCN(c2cc3c(cc2NC(=O)c2cnn4cccnc24)CC(C)(C)O3)CC1` [Example 4, N-(6-(4-(2-(Dimethylamino)ethyl)piperazin-1-yl)-2,2-dimethyl-2,3-dihydrobenzofuran-5-yl)pyrazolo[1,5-a]pyrimidine-3-carboxamide] yielded a Ki of 41 nM. For `COc1cc2c(cc1NC(=O)c1cnn3ccc(NCCN)nc13)CC(C)(C)O2` [Example 43, 5-((2-Aminoethyl)amino)-N-(6-methoxy-2,2-dimethyl-2,3-dihydrobenzofuran-5-yl)pyrazolo[1,5-a]pyrimidine-3-carboxamide], the Ki was 3.2 nM. `CCc1oncc1CN1CCN(c2cc3c(cc2NC(=O)c2cnn4cccnc24)CN(C[C@@H](F)C(C)(C)O)C3=O)CC1` [Example 103, (R)-N-(6-(4-((5-Ethylisoxazol-4-yl)methyl)piperazin-1-yl)-2-(2-fluoro-3-hydroxy-3-methylbutyl)-1-oxoisoindolin-5-yl)pyrazolo[1,5-a]pyrimidine-3-carboxamide] was tested, and the Ki was 5.4 nM. Work on `CC(=O)NCCN1CCN(c2cc3c(cc2NC(=O)c2cnn4cccnc24)CC(C)(C)O3)CC1` [Example 3, N-(6-(4-(2-Acetamidoethyl)piperazin-1-yl)-2,2-dimethyl-2,3-dihydrobenzofuran-5-yl)pyrazolo[1,5-a]pyrimidine-3-carboxamide] yielded a Ki of 3.7 nM. `CC1(C)Cc2cc(NC(=O)c3cnn4cccnc34)c(N3CCN(CCN)CC3)cc2O1` [Example 1, N-[6-[4-(2-aminoethyl)piperazin-1-yl]-2,2-dimethyl-3H-benzofuran-5-yl]pyrazolo[1,5-a]pyrimidine-3-carboxamide] gave a Ki of 7.4 nM. Compound `COCCN1CCN(c2cc3c(cc2NC(=O)c2cnn4cccnc24)CN(C[C@@H](F)C(C)(C)O)C3=O)CC1` [Example 112, (R)-N-(2-(2-Fluoro-3-hydroxy-3-methylbutyl)-6-(4-(2-methoxyethyl)piperazin-1-yl)-1-oxoisoindolin-5-yl)pyrazolo[1,5-a]pyrimidine-3-carboxamide] has a Ki of 2.6 nM. With `Cc1ccc(-c2cc3c(cc2NC(=O)c2cnn4cccnc24)CC(C)(C)O3)nc1` [Example 145, N-[2,2-Dimethyl-6-(5-methyl-2-pyridyl)-3H-benzofuran-5-yl]pyrazolo[1,5-a]pyrimidine-3-carboxamide] the Ki was 60 nM. With `CCc1nocc1CN1CCN(c2cc3c(cc2NC(=O)c2cnn4cccnc24)CN(C[C@@H](F)C(C)(C)O)C3=O)CC1` [Example 104, (R)-N-(6-(4-((3-Ethylisoxazol-4-yl)methyl)piperazin-1-yl)-2-(2-fluoro-3-hydroxy-3-methylbutyl)-1-oxoisoindolin-5-yl)pyrazolo[1,5-a]pyrimidine-3-carboxamide] the Ki was 5 nM. Work on `COc1cc2c(cc1NC(=O)c1cnn3cccnc13)CN(C[C@@H](F)C(C)(C)O)C2=O` [Example 86, (R)-N-(2-(2-Fluoro-3-hydroxy-3-methylbutyl)-6-methoxy-1-oxoisoindolin-5-yl)pyrazolo[1,5-a]pyrimidine-3-carboxamide] yielded a Ki of 1.3 nM. `CCOc1cc2c(cc1NC(=O)c1cnn3cccnc13)CN(C[C@@H](F)C(C)(C)O)C2=O` [Example 82, (R)-N-(6-Ethoxy-2-(2-fluoro-3-hydroxy-3-methylbutyl)-1-oxoisoindolin-5-yl)pyrazolo[1,5-a]pyrimidine-3-carboxamide] was tested, and the Ki was 0.37 nM. `CC(C)(O)[C@H](F)CN1Cc2cc(NC(=O)c3cnn4cccnc34)c(O[C@H]3CC[C@@H](O)C3)cc2C1=O` [Example 66, N-(2-((R)-2-Fluoro-3-hydroxy-3-methylbutyl)-6-(((1S,3R)-3-hydroxycyclopentyl)oxy)-1-oxoisoindolin-5-yl)pyrazolo[1,5-a]pyrimidine-3-carboxamide] was tested, and the Ki was 0.67 nM. Work on `COc1cc2c(cc1NC(=O)c1cnn3ccc(N)nc13)CC(C)(C)O2` [Example 41, 5-amino-N-(6-Methoxy-2,2-dimethyl-2,3-dihydrobenzofuran-5-yl)pyrazolo[1,5-a]pyrimidine-3-carboxamide] yielded a Ki of 4.6 nM. `CC(C)(O)[C@H](F)CN1Cc2cc(NC(=O)c3cnn4cccnc34)c(C3COC3)cc2C1=O` [Example 147, N-[2-[(2R)-2-Fluoro-3-hydroxy-3-methyl-butyl]-6-(oxetan-3-yl)-1-oxo-isoindolin-5-yl]pyrazolo[1,5-a]pyrimidine-3-carboxamide] showed a Ki of 48 nM. In the case of `CC(C)(O)[C@H](F)CN1Cc2cc(NC(=O)c3cnn4cccnc34)c(OCC(F)F)cc2C1=O` [Example 65, (R)-N-(6-(2,2-Difluoroethoxy)-2-(2-fluoro-3-hydroxy-3-methylbutyl)-1-oxoisoindolin-5-yl)pyrazolo[1,5-a]pyrimidine-3-carboxamide], the Ki is reported as 0.26 nM. `O=C(Nc1cc2c(cc1N1CCOCC1)C(=O)N(CCN1CCCC1)C2)c1cnn2cccnc12` [Example 93, N-[6-Morpholino-1-oxo-2-(2-pyrrolidin-1-ylethyl)isoindolin-5-yl]pyrazolo[1,5-a]pyrimidine-3-carboxamide] showed a Ki of 22 nM. `Cc1cnc2c(C(=O)Nc3cc4c(cc3OC(C)C)C(=O)N(C[C@@H](F)C(C)(C)O)C4)cnn2c1` [Example 81, (R)-N-(2-(2-Fluoro-3-hydroxy-3-methylbutyl)-6-isopropoxy-1-oxoisoindolin-5-yl)-6-methylpyrazolo[1,5-a]pyrimidine-3-carboxamide] was tested, and the Ki was 0.42 nM. With `CC(C)(O)c1cc2c(cc1NC(=O)c1cnn3cccnc13)CN(C[C@@H](F)C(C)(C)O)C2=O` [Example 148, (R)—N-(2-(2-Fluoro-3-hydroxy-3-methylbutyl)-6-(2-hydroxypropan-2-yl)-1-oxoisoindolin-5-yl)pyrazolo[1,5-a]pyrimidine-3-carboxamide] the Ki was 16 nM. `CC(C)(O)[C@H](F)CN1Cc2cc(NC(=O)c3cnn4cccnc34)c(OC3CNC3)cc2C1=O` [Example 73, N-[6-(Azetidin-3-yloxy)-2-[(2R)-2-fluoro-3-hydroxy-3-methyl-butyl]-1-oxo-isoindolin-5-yl]pyrazolo[1,5-a]pyrimidine-3-carboxamide hydrochloride] gave a Ki of 3.7 nM. For `CO[C@@H]1C[C@@H]2CN(c3cc4c(cc3NC(=O)c3cnn5cccnc35)CN(C[C@@H](F)C(C)(C)O)C4=O)CCN2C1` [Example 107, N-(2-((R)-2-Fluoro-3-hydroxy-3-methylbutyl)-6-((7R,8aR)-7-methoxyhexahydropyrrolo[1,2-a]pyrazin-2(1H)-yl)-1-oxoisoindolin-5-yl)pyrazolo[1,5-a]pyrimidine-3-carboxamide], the Ki was 6.5 nM.
